Test results taken from US6787525B1, “Glyceryl nucleotides, method for the production thereof and their use” (priority 1998, dated 2004).

Legend:
[1] = test system: NCI-H460; assay: In vitro cytostatic effect (SRB): NCI-H460, Lung cancer
[2] = test system: SK-MEL-5; assay: In vitro cytostatic effect (SRB): SK-MEL-5, Melanoma
[3] = test system: T-47D; assay: In vitro cytostatic effect (SRB): T-47D, Breast cancer
[4] = test system: SNB-75; assay: In vitro cytostatic effect (SRB): SNB-75, Cancer of the central nervous system
[5] = test system: SK-MEL-2; assay: In vitro cytostatic effect (SRB): SK-MEL-2, Melanoma
[6] = test system: KM12; assay: In vitro cytostatic effect (SRB): KM12, Intestinal cancer
[7] = test system: MALME-3M; assay: In vitro cytostatic effect (SRB): MALME-3M, Melanoma
[8] = test system: SR; assay: In vitro cytostatic effect (SRB): SR, Leukemia
[9] = test system: MDA-MB-231/ATCC; assay: In vitro cytostatic effect (SRB): MDA-MB-231/ATCC, Breast cancer
[10] = test system: SK-OV-3; assay: In vitro cytostatic effect (SRB): SK-OV-3, Ovarian cancer
[11] = test system: PC-3; assay: In vitro cytostatic effect (SRB): PC-3, Prostate cancer
[12] = test system: UACC-257; assay: In vitro cytostatic effect (SRB): UACC-257, Melanoma
[13] = test system: SN12C; assay: In vitro cytostatic effect (SRB): SN12C, Kidney cancer
[14] = test system: K-562; assay: In vitro cytostatic effect (SRB): K-562, Leukemia
[15] = test system: UACC-62; assay: In vitro cytostatic effect (SRB): UACC-62, Melanoma
[16] = test system: NCI-H226; assay: In vitro cytostatic effect (SRB): NCI-H226, Lung cancer
[17] = test system: 768-0; assay: In vitro cytostatic effect (SRB): 768-0, Kidney cancer
[18] = test system: SNB-19; assay: In vitro cytostatic effect (SRB): SNB-19, Cancer of the central nervous system
[19] = test system: DU-145; assay: In vitro cytostatic effect (SRB): DU-145, Prostate cancer
[20] = test system: NCI-H522; assay: In vitro cytostatic effect (SRB): NCI-H522, Lung cancer
[21] = test system: MDA-N; assay: In vitro cytostatic effect (SRB): MDA-N, Breast cancer
[22] = test system: OVCAR-5; assay: In vitro cytostatic effect (SRB): OVCAR-5, Ovarian cancer
[23] = test system: SF-295; assay: In vitro cytostatic effect (SRB): SF-295, Cancer of the central nervous system
[24] = test system: OVCAR-3; assay: In vitro cytostatic effect (SRB): OVCAR-3, Ovarian cancer
[25] = test system: CCRF-CEM; assay: In vitro cytostatic effect (SRB): CCRF-CEM, Leukemia
[26] = test system: BT-549; assay: In vitro cytostatic effect (SRB): BT-549, Breast cancer
[27] = test system: M14; assay: In vitro cytostatic effect (SRB): M14, Melanoma
[28] = test system: EKVX; assay: In vitro cytostatic effect (SRB): EKVX, Lung cancer
[29] = read-out: LC50, 48-hour incubation

CCCCCCCCCCCCCCCCCCOC(COP(=O)(O)OCC1OC(n2cc(F)c(=O)[nH]c2=O)CC1O)COP(=O)(O)OCC1OC(n2ccc(N)nc2=O)C(O)C1O (racemic) [NSC 698688-A/1, arabinocytidylyl-(5′→1)-2-O-octadecyl-rac-glycerylyl-(3→5′)-5-fluoro-2′-deoxyuridine]
GI50 ([1]; 48-hour incubation): 0.0466 µM
TGI ([1]; 48-hour incubation): 2.79E − 05 mol/l
CC50 [1, 29]: > 100 µM
GI50 ([2]; 48-hour incubation): > 100 µM
TGI ([2]; 48-hour incubation): >1.00E − 04 mol/l
CC50 [2, 29]: > 100 µM
GI50 ([3]; 48-hour incubation): > 100 µM
TGI ([3]; 48-hour incubation): >1.00E − 04 mol/l
CC50 [3, 29]: > 100 µM
GI50 ([4]; 48-hour incubation): 20.4 µM
TGI ([4]; 48-hour incubation): >1.00E − 04 mol/l
CC50 [4, 29]: > 100 µM
GI50 ([5]; 48-hour incubation): > 100 µM
TGI ([5]; 48-hour incubation): >1.00E − 04 mol/l
CC50 [5, 29]: > 100 µM
GI50 ([6]; 48-hour incubation): 74.7 µM
TGI ([6]; 48-hour incubation): >1.00E − 04 mol/l
CC50 [6, 29]: > 100 µM
GI50 ([7]; 48-hour incubation): > 100 µM
TGI ([7]; 48-hour incubation): >1.00E − 04 mol/l
CC50 [7, 29]: > 100 µM
TGI ([8]; 48-hour incubation): >1.00E − 04 mol/l
CC50 [8, 29]: > 100 µM
GI50 ([9]; 48-hour incubation): > 100 µM
TGI ([9]; 48-hour incubation): >1.00E − 04 mol/l
CC50 [9, 29]: > 100 µM
GI50 ([10]; 48-hour incubation): 36.3 µM
TGI ([10]; 48-hour incubation): >1.00E − 04 mol/l
CC50 [10, 29]: > 100 µM
GI50 ([11]; 48-hour incubation): 11.5 µM
TGI ([11]; 48-hour incubation): 8.64E − 05 mol/l
CC50 [11, 29]: > 100 µM
GI50 ([12]; 48-hour incubation): 49.8 µM
TGI ([12]; 48-hour incubation): >1.00E − 04 mol/l
CC50 [12, 29]: > 100 µM
GI50 ([13]; 48-hour incubation): 13.3 µM
TGI ([13]; 48-hour incubation): >1.00E − 04 mol/l
CC50 [13, 29]: > 100 µM
GI50 ([14]; 48-hour incubation): 3.35 µM
TGI ([14]; 48-hour incubation): >1.00E − 04 mol/l
CC50 [14, 29]: > 100 µM
GI50 ([15]; 48-hour incubation): 1.77 µM
TGI ([15]; 48-hour incubation): >1.00E − 04 mol/l
CC50 [15, 29]: > 100 µM
GI50 ([16]; 48-hour incubation): 75.9 µM
TGI ([16]; 48-hour incubation): >1.00E − 04 mol/l
CC50 [16, 29]: > 100 µM
GI50 ([17]; 48-hour incubation): 0.854 µM
TGI ([17]; 48-hour incubation): 1.34E − 05 mol/l
CC50 [17, 29]: 44.4 µM
GI50 ([18]; 48-hour incubation): 0.919 µM
TGI ([18]; 48-hour incubation): 2.37E − 05 mol/l
CC50 [18, 29]: 64.1 µM
GI50 ([19]; 48-hour incubation): 2.68 µM
TGI ([19]; 48-hour incubation): >1.00E − 04 mol/l
CC50 [19, 29]: > 100 µM
GI50 ([20]; 48-hour incubation): 16.2 µM
TGI ([20]; 48-hour incubation): >1.00E − 04 mol/l
CC50 [20, 29]: > 100 µM
GI50 ([21]; 48-hour incubation): > 100 µM
TGI ([21]; 48-hour incubation): >1.00E − 04 mol/l
CC50 [21, 29]: > 100 µM
GI50 ([22]; 48-hour incubation): 89.6 µM
TGI ([22]; 48-hour incubation): >1.00E − 04 mol/l
CC50 [22, 29]: > 100 µM
GI50 ([23]; 48-hour incubation): 0.799 µM
TGI ([23]; 48-hour incubation): >1.00E − 04 mol/l
CC50 [23, 29]: > 100 µM
GI50 ([24]; 48-hour incubation): > 100 µM
TGI ([24]; 48-hour incubation): >1.00E − 04 mol/l
CC50 [24, 29]: > 100 µM
GI50 ([25]; 48-hour incubation): 1.28 µM
TGI ([25]; 48-hour incubation): >1.00E − 04 mol/l
CC50 [25, 29]: > 100 µM
GI50 ([26]; 48-hour incubation): 14.5 µM
TGI ([26]; 48-hour incubation): 8.69E − 05 mol/l
CC50 [26, 29]: > 100 µM
GI50 ([27]; 48-hour incubation): 3.53 µM
TGI ([27]; 48-hour incubation): 8.62E − 05 mol/l
CC50 [27, 29]: > 100 µM
GI50 ([28]; 48-hour incubation): > 100 µM
TGI ([28]; 48-hour incubation): >1.00E − 04 mol/l
CC50 [28, 29]: > 100 µM
